Measured values taken from US5804576A, “Derivatives of 5-androsten-17-ones and 5-androstan-17-ones” (Research Corporation Technologies, Inc., priority 1986, dated 1998).

What was measured:
rat uterus [1] = experiment: Estrogenic and anti-estrogenic activity (uterine weight, s.c., CD rats); format: in vivo, rat (female CD); details: for Mean Uterine Weight ± S.D.: 60 mg/kg s.c., 3 days, Tables 16 and 17
Procedure: Female CD rats, 26-27 days old, were used. Rats were injected subcutaneously for 3 days with either DHEA or 16 in propylene glycol. Control rats received propylene glycol alone. The rats were killed on the 4th day and the uteri were removed and weighed.
(§1) Female CD rats, 26-27 days old, were injected subcutaneously for 3 days with one of the compounds of the present invention at 60 mg/kg in propylene glycol. Controls received propylene glycol alone. On the 4th day the rats were killed and the uteri were dissected out and weighed.

[2] = Anti-obesity test (body weight, food consumption); format: in vivo, mouse (male A/J); details: for mean weekly weight ± S.D.: 0.36% of diet, n = 5; for anti-weight effect (in words): 400 mg/kg repeated (DHEA), cancer preventive dosages (19, 20); for weekly weight (Table 13): 0.54% in food
Procedure: Male A/J mice (5 weeks old) were obtained from the Jackson Laboratory and were housed in polycarbonate cages (5 mice/cage) in animal quarters maintained at 24°±1° C. with 12 hours of light and 12 hours of darkness each day. One week after arrival, the mice were placed on a chow diet containing varying concentrations of DHEA or other steroid. Animals were weighed weekly; food consumption was determined weekly by subtracting the amount of food remaining in the cage from the amount added.
Male A/J (5 weeks old) were obtained from the Jackson Laboratory and were housed in polycarbonate cages (5 mice/cage) in animal quarters maintained at 24°±1° C. with 12 hours of light and 12 hours of darkness each day. One week after arrival, the mice were placed on a diet containing either DHEA, 19, or without steroid. Animals were weighed weekly. The concentration of DHEA or 19 used in the food was 0.54%.
Male A/J mice (5 weeks old) were obtained from the Jackson Laboratory and were housed in polycarbonate cages (5 mice/cage) in animal quarters maintained at 24°±1° C. with 12 hours of light and 12 hours of darkness each day. One week after arrival, the mice were placed on a show diet containing DHEA, 16, or 21 at 0.36%. Animals were weighed weekly.

[3] = system: rat uterus; mouse seminal vesicle plus prostate; experiment: Sex steroid hormonal or anti-hormonal activity (estrogenic, anti-estrogenic, androgenic, anti-androgenic); details: in vivo
Procedure: as §1, with “weighed. The results are given below:” for “weighed.”
(§2) (a) Male A/J mice (5 weeks old) were obtained from the Jackson Laboratory and were housed in polycarbonate cages (5 mice/cage) in animal quarters maintained at 24°[…] C. with 12 hours of light and 12 hours of darkness each day. One week after arrival, the mice were placed on a chow diet containing one of the test compounds of the present invention at 0.36%. After 4 weeks of treatment, the above mice were killed, and the seminal vesicles and prostate glands were dissected out and weighed.

[4] = system: seminal vesicles plus prostate glands; experiment: Androgenic and anti-androgenic activity (seminal vesicle plus prostate weight); format: in vivo, mouse (male A/J)
Procedure: Male A/J mice (5 weeks old) were obtained from the Jackson Laboratory and were housed in polycarbonate cages (5 mice/cage) in animal quarters maintained at 24°±1° C. with 12 hours of light and 12 hours of darkness each day. One week after arrival, mice were placed on a chow diet containing either 0.18% or 0.09% 16 or without steroid. Mice were weighed weekly. After 4 weeks, the mice were killed, and the seminal vesicles plus prostate glands were dissected out and weighed.
as §2

[5] = target: T1, purified bovine adrenal G6PDH (Bos taurus, UniProt F1MMK2); experiment: Inhibition of purified bovine adrenal G6PDH; format: biochemical; details: for inhibition at 1 µM: Conc. 1 μm; for inhibition at 1 µM / inhibition at 10 µM: read-out: Percent Inhibition (G6PDH); for inhibition at 10 µM: Conc. 10 μm
T1 construct: full-length, wild type, no tag
T1 sequence (F1MMK2 31-70): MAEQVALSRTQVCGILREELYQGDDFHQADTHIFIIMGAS
T1 sequence (F1MMK2 101-575): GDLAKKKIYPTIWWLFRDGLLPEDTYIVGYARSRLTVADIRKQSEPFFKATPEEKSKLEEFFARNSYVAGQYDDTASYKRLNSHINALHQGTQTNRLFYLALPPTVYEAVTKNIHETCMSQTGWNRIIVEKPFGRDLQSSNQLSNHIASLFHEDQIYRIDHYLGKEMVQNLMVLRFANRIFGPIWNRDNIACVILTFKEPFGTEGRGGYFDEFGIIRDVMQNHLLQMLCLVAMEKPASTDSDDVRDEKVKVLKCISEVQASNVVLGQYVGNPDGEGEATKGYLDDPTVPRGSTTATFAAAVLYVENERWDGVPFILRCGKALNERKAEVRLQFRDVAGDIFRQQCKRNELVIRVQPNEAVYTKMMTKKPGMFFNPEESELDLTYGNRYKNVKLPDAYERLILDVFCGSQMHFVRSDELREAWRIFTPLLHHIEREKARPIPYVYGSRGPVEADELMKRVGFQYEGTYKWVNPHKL
Text: The compounds listed below are screened as inhibitors of purified bovine adrenal G6PDH activity as one predictor of cancer preventive action. The assay for testing the inhibition of purified bovine adrenal G6PDH is according to the procedure by Oertel, G. W. and Rebelein, I. in Biochem. Biophys. Acta, 184, 459-460 (1969). The results are given below in Table I:
Both of the above tests, i.e., the inhibition of mammalian glucose-6-phosphate dehydrogenase (G6PDH) and the inhibition of tumor promoter (TPA) stimulation of ^3 H-thymidine incorporation in mouse epidermis are recognized as indicators of cancer prophylactic activity. The following Table compares the efficacy of representative compounds of the present invention in these two tests with that of DHEA: […]

[6] = system: (3H) DMBA binding to skin DNA; experiment: [3H]DMBA binding to mouse skin DNA, topical steroid; format: in vivo, mouse (A/J); details: topical; A/J mouse
Text: Skin tumors can be induced in the mouse either by weekly application of a carcinogen such as […] (DMBA), or alternatively,by a single sub-threshold dose of the carcinogen followed by twice weekly applications of the tumor promoter tetradecanoylphorbol-13-acetate (TPA). In order to exert its carcinogenic effect, DMBA must be metabolized by an NADPH-dependent mixed-function oxidase to chemically reactive intermediates which bind covalently to DNA and produce mutations leading to malignant transformation. […] This effect of DHEA very probably is a result of the inhibition of G6PDH and lowering of the intracellular pool of NADPH, which is a co-factor for the mixed-function oxidase activation of DMBA.
Binding of [^3 H]DMBA to mouse skin DNA was determined as described in Pashko, L. L., and Schwartz, A. G. (1983), Effect of food restriction, dehydroepiandrosterone, or obesity on the binding of ^3 H-7,12-dimethylbenz(a)-anthracene to mouse skin DNA, J. Gerontol., 38, 8-12. Values are mean±SD for 3 individual determinations, with pooled tissue from 2 mice used for each determination. DHEA or testosterone (400 ug in 0.2 ml acetone) was applied to the skin one hour before [^3 H]DMBA. The mean weight of the food restricted mice was 18.5±1.0 gm, n=6, of the ad libitum fed, 27.4±1.0 gm, n=6, of the ad libitum fed treated with DHEA, 28.2±0.9 gm, n=6, and of the ad libitum fed treated with testosterone, 28.3±0.9 gm, n=6, following two weeks of feeding. The average food consumed was, in gm/mouse/day, 2.2, 3.8, 3.8 and 4.0 for the food restricted, ad libitum fed, ad libitum fed plus DHEA, and ad libitum fed plus testosterone groups, respectively.

[7] = system: TPA (Tumor Promoter) Stimulation of Mouse Epidermal DNA; experiment: Inhibition of TPA stimulation of mouse epidermal DNA synthesis (3H-thymidine incorporation), oral; format: in vivo, mouse (ICR male); details: oral, single administration
Text: Synthesis rate by orally administered steroids.
The inhibition of tumor promoter stimulation of mouse epidermal DNA synthesis rate by steroids may also contribute to cancer preventive activity. The following assay is used:
ICR male mice (7-9 weeks old) were shaved on the back 1-2 days before use. Only mice showing no hair regrowth were used. Animals were orally intubated with a particular steroid suspended by homogenization in sesame oil or with sesame oil alone (controls). One hour later TPA (10 μg in 0.2 ml of acetone) or acetone vehicle was applied topically to the shaved skin. Twenty hours later, mice were injected i.p. with 60 μCi of ^3 H-thymidine 20 minutes before sacrifice. The animals were killed by cervical dislocation and the residual hair was removed with a depilatory agent. Epidermal scrapings were prepared according to the procedures of Hennings et al. (Cancer Res. 28, 53, 1968), homogenized in distilled water at 4° C., and the macromolecules precipitated with 0.4N trichloroacetic acid (TCA). Following 6 washes with absolute ethanol at room temperature, the nucleic acids were hydrolyzed with 0.5N TCA at 70° C. for 5 minutes. The hydrolysate (0.2 ml aliquots) were counted in an Intertechnique scintillation counter and assayed for DNA by the diphenylamine reaction.
The data are expressed as counts per minute (cpm) of tritium per μg of DNA.
A similar oral dose-response experiment with compound 16 and DHEA was performed.
Both of the above tests, i.e., the inhibition of mammalian glucose-6-phosphate dehydrogenase (G6PDH) and the inhibition of tumor promoter (TPA) stimulation of ^3 H-thymidine incorporation in mouse epidermis are recognized as indicators of cancer prophylactic activity. The following Table compares the efficacy of representative compounds of the present invention in these two tests with that of DHEA:
(§3) Male ICR mice were orally intubated with steroid suspended in sesame oil (0.5 ml/mouse) at the indicated dose. Mice not receiving steroid were given sesame oil alone. One hour later mice received topical application of TPA and 20 hours later the rate of ^3 H-thymidine incorporation into the epidermis was determined as described in Table 4.
as §3, with “TPA,” for “TPA”

[8] = system: [3H]DMBA binding to skin DNA; experiment: [3H]DMBA binding to skin DNA, oral steroid; format: in vivo, mouse (male A/J); details: 12 hours
Procedure: (§4) Male A/J mice were orally intubated with steroid suspended in sesame oil (0.5 ml/mouse) at the indicated dose. Mice not receiving steroid were given sesame oil alone. Food restricted mice received approximately 60% of food of Ad libitum fed for two weeks. One hour after oral intubation, topical [^3 H]DMBA was applied to the skin, and the amount bound to DNA was determined 12 hours later as described in Table 4.
as §4, with “alone.” for “alone. Food restricted mice received approximately 60% of food of Ad libitum fed for two weeks.”

rat uterus [9] = experiment: Uterotrophic test for estrogenic activity, oral; format: in vivo; details: 14 μg/kg oral; 3 days; n = 6
Text: Uterotrophic Test for Estrogenic Activity. Compound 16 vs. DHEA and Estradiol-benzoate. Compounds Given by Oral Administration.
Twenty-two day old rats were obtained from Charles River Laboratories. Animals were used at 29 days of age. Test steroids were suspended by homogenization in sesame oil. Rats were orally intubated at 1-2 P.M. for 3 days with a test steroid in sesame oil or with sesame oil alone (control). On the 4th day the animals were killed and the uteri were removed and weighed.

[10] = system: seminal vesicles plus prostate glands; experiment: Androgenic and anti-androgenic activity (seminal vesicle plus prostate weight); format: in vivo, mouse (male A/J); details: con't. experiment; five weeks; DHEA 0.54%; n = 5

C[C@H]1CC[C@@]2(C)C(=CC[C@@H]3[C@@H]2CC[C@]2(C)C(=O)[C@H](C)C[C@@H]32)C1 [Compound 21]
Mean Uterine Weight ± S.D. (rat uterus [1]): 1.76 ± 0.21 mg/100 gm body weight | mean weekly weight ± S.D. ([2]; week 0): 22.7 ± 1.9 grams | mean weekly weight ± S.D. ([2]; week 1): 20.1 ± 2.1 grams | mean weekly weight ± S.D. ([2]; week 2): 19.9 ± 2.3 grams | mean weekly weight ± S.D. ([2]; week 3): 22.2 ± 2.3 grams | estrogenic, anti-estrogenic, androgenic, anti-androgenic activity (in words) [3]: neither estrogenic, anti-estrogenic, androgenic, nor anti-androgenic activity | Mean Seminal Vesicle plus Prostate Weight ± S.D. ([4]; 0.36% of diet, 4 weeks, n = 5): 5.1 ± 1.4 mg/100 gm body weight | G6PDH inhibition compared with DHEA (in words) [5]: more effective inhibitorsof G6PDH than is DHEA | inhibition at 1 µM [5]: 36% | inhibition at 10 µM [5]: 48%

C[C@]12CC[C@H]3[C@@H](CCC4=CC(=O)CC[C@@]43C)[C@@H]1CC[C@@H]2O [testosterone]
rate of binding of topically applied 3H-DMBA to skin DNA (in words) [6]: without inhibitory effect

C[C@H]1CC[C@@]2(C)C(=CC[C@@H]3[C@@H]2CC[C@]2(C)C(=O)[C@H](F)C[C@@H]32)C1 [Compound 20]
anti-weight effect (in words) [2]: do not produce an anti-weight effect | TPA stimulation in 3H-thymidine incorporation (in words) [7]: to a degree comparable to that produced by food restriction at doses well below 400 mg/kg | inhibition at 1 µM [5]: 55% | inhibition at 10 µM [5]: 46% | SPECIFIC ACTIVITY ([3H]DMBA bound to skin DNA) ([8]; 100 mg/kg p.o.): 48.4 ± 2.6 cpm/ug DNA | SPECIFIC ACTIVITY ([3H]DMBA bound to skin DNA) ([8]; 200 mg/kg p.o.): 43.7 ± 1.5 cpm/ug DNA

C[C@]12CCC(Cl)CC1=CC[C@@H]1[C@@H]2CC[C@]2(C)C(=O)CC[C@@H]12 (stereo partly drawn) [3 chloro-5-androstene-17-one]
estrogenic, anti-estrogenic, androgenic, anti-androgenic activity (in words) [3]: without any demonstrable estrogenic, androgenic, anti-androgenic or anti-estrogenic activity

C[C@]12CC[C@@H]3c4ccc(OC(=O)c5ccccc5)cc4CC[C@H]3[C@@H]1CC[C@@H]2O [Estradiol-benzoate, reference compound]
Mean Uterine Weight (rat uterus [9]): 244 ± 44 Mgs

C[C@H]1CC[C@@]2(C)C(=CC[C@@H]3[C@@H]2CC[C@]2(C)C(=O)[C@H](O)C[C@@H]32)C1 [Compound 19]
Mean Uterine Weight ± S.D. (rat uterus [1]): 2.16 ± 0.5 mg/100 gm body weight | estrogenic / anti-estrogenic effect, uterine weight (in words) (rat uterus [1]; s.c., 60 mg/kg or higher, female CD rats): no apparent estrogenic nor anti-estrogenic activity | anti-weight effect (in words) [2]: do not produce an anti-weight effect | weekly weight (Table 13) ([2]; week 0): 21.1 ± 0.8 | weekly weight (Table 13) ([2]; week 1): 19.1 ± 0.9 | weekly weight (Table 13) ([2]; week 2): 18.4 ± 1.0 | weekly weight (Table 13) ([2]; week 3): 18.7 ± 1.4 | weekly weight (Table 13) ([2]; week 4): 19.7 ± 1.1 | weekly weight (Table 13) ([2]; week 5): 20.6 ± 0.4 | estrogenic, anti-estrogenic, androgenic, anti-androgenic activity (in words) [3]: neither estrogenic, anti-estrogenic, androgenic, nor anti-androgenic activity | TPA stimulation in 3H-thymidine incorporation (in words) [7]: to a degree comparable to that produced by food restriction at doses well below 400 mg/kg | androgenic / anti-androgenic effect, seminal vesicle plus prostate weight (in words) ([4]; diet, male A/J mice): no significant effect on seminal vesicle plus prostate gland weight | Mean Seminal Vesicle plus Prostate Weight ± S.D. [10]: 6.45 ± 0.65 mg/100 gm body weight | G6PDH inhibition compared with DHEA (in words) [5]: more effective inhibitorsof G6PDH than is DHEA | inhibition at 1 µM [5]: 29% | inhibition at 10 µM [5]: 64% | SPECIFIC ACTIVITY ([3H]DMBA bound to skin DNA) ([8]; 400 mg/kg p.o.): 20.4 ± 1.1 cpm/ug DNA
